These results are taken from patent US20240252445A1, “COMPOSITIONS AND METHODS OF PROMOTING AC[…] […] AND DIAGNOSTIC AGENTS IN THE HEART” (CASE WESTERN RESERVE UNIVERSITY, priority 2021, published 2024).

The conditions of this data set: NBDG 1 mg/kg.

For the compound `O=[N+]([O-])c1ccc(N[C@H]2C(O)O[C@H](CO)[C@@H](O)[C@@H]2O)c2nonc12` (some centres unmarked) [NBDG], the NBDG fluorescence localisation entry (animals pre-injected with ePL, after organ perfusion) is “highly localized in the heart”. The “NBDG fluorescence in the heart in competition with unlabeled glucose” value (ePL pre-injected, unlabeled glucose 500 mg/kg) was “diminished”.
